Measured values taken from patent US11795510B2, “Identification of epigenomic reprogramming in cancer and uses thereof” (The Johns Hopkins University, priority 2016, dated 2023).
“Also recorded” adds a separate entry of the source.

Assays:
Format in all cases: cell-based, human
[1] = system: H3K9Me2 and H3K27Ac across CDH2 and TOP2B gene loci; test: ChIP-qPCR across CDH2 and TOP2B loci
Experimental: Tests for statistical significance (two-tailed students t-test) were performed on data collected from technical replicate (performed in parallel at the same time) or biological replicate (performed at different times) experiments as indicated in the figure legends using excel software for western blot densitometry, MTT assays, and tumor measurements. Whole genome bisulfite sequencing and RNA-seq were performed with HiSeq instruments (Illumina) as described in Hansen et al. (Increased methylation variation in epigenetic domains across cancer types. Nat Genet 43, 768-75 (2011)). ChIP assays were performed as previously described for fixed cells with sonication. For ChIP-qPCR, equal amounts of paired input/IP DNA were amplified by real-time PCR (Roche LightCycler96) and fold enrichments calculated. Primer sequences are listed in Supplementary Table 11. […] IP sequencing reads were normalized to their corresponding inputs. Sequencing procedures, bioinformatics methods including domain calls, and statistical analyses are described in detail within the supplementary methods section.

[2] = system: glucose incorporation into lactate and nucleotides (PPP); test: 13C-1,2 glucose tracing by LC-HRMS; conditions: 10 mM 13C-1,2 glucose, 36 hours
Experimental: Tissue samples and cell lines were previously collected from PDAC patients by rapid autopsy, sequenced-validated, and monitored for mycoplasma as previously described. Low passage (2-17) rapid autopsy cell lines were cultured at 37° C. in DMEM with 10% fetal bovine serum (FBS, Gibco). For MTT assays, 15,000 cells/well were plated into 96 well plates in triplicate, treated 12 hours later, and assayed after 24 hr (glucose responses) or 6 days (chemotherapy) with CellTiter96 (Promega). For glucose response assays, nutrient-deplete DMEM (no glucose, glutamine, pyruvate, or serum) was used with addition of glucose as indicated. […] Cells were then washed with PBS, trypsinized, and viable cells counted with a hemocytometer. Glucose uptake and lactate secretion were measured with a YSI 7100 Bioanalyzer as described in the supplementary methods. […]
LC-HRMS Metabolite Profiling. LC-HRMS samples were prepared and analyzed as described in Liu et al. (Development and quantitative evaluation of a high-resolution metabolomics technology. Anal Chem 86, 2175-84 (2014)). […] Additional replicates were also included and counted at the end of the experiment for normalization. […] Pellets were reconstituted into a volume normalized to protein content (15 uL of 1:1 acetonitrile:methanol and 15 uL of water was used per 1 mg protein) and analyzed by LC-QE-MS. […]

[3] = system: global chromatin modifications (H3K9Me2/3, acetylation) in distant metastatic subclones (A38Lg); test: Western blots of histone modifications, distant metastatic subclones
Experimental: Histones were acid extracted as described and western blots performed on 3.5 ug histones, which were checked by Ponceau stains prior to western blot to ensure equal loading. Densitometry was performed with ImageJ software. RNA was extracted with Trizol reagent (Life Technologies) and isopropanol precipitated. Genomic DNA was purified with MasterPure DNA extraction reagents (Epicenter). Immunohistochemistry, H&E staining, and immunofluorescence on formalin-fixed, paraffin-embedded (FFPE) tissue microarray sections (TMAs) were performed according to standard procedures.
RNAi experiments were performed with siRNA transfections (Oligofectamine, Life Technologies) using negative control siRNA (Sigma, SIC001) and pre-designed siRNA oligonucleotides against indicated genes in parallel (Sigma, PGD: SASI_Hs02 00334150, CDH2: SASI_Hs01_00153995, TOP2B: SASI_Hs02_00311874). siRNAs against mutant KRAS^G12V (CUACGCCAACAGCUCCAAC) (SEQ ID NO:1) were custom designed. Cells were incubated with siRNAs for 4 days after transfection and harvested. For drug treatments in 2-D, cells were grown to 70-80% confluency and treated for 3 days with 250 uM 6AN or DMSO negative control.

For NC(=O)c1ccc(N)nc1 [6AN, 6-aminonicotinamide], the “H3K9Me2 across CDH2/TOP2B loci (ChIP-qPCR)” value ([1]; matched lung metastasis A38Lg) was “enrichment of H3K9Me2 across both loci; also recorded: induced spreading of H3K9Me2 across the locus”, the “H3K27Ac over the CDH2 genic region (ChIP-qPCR)” value ([1]; matched lung metastasis A38Lg) was “concordant reductions; also recorded: corresponding loss of H3K27Ac” and the “H3K9Me2 and H3K27Ac enrichments across CDH2/TOP2B loci (ChIP-qPCR), control vs 6AN” value ([1]; peritoneal subclone A38Per) was “nearly identical enrichments; also recorded: no effect”. The “incorporation of labeled glucose into lactate and nucleotides (metabolites downstream of the PPP)” value [2] was “reversed the previously detected high incorporation; also recorded: reduced incorporation”, the “persistence of chromatin changes upon removal of 6AN from the media” value ([3]; 3d treatment followed by removal for an additional 3d) was “persisted” and the “H3K27Me3 or H4K20Me3, western blot densitometry” value ([3]; across distant metastatic subclones) was “minimal or non-recurrent effects”. For the same compound, the “reprogrammed chromatin modifications (H3K9Me2, acetylation), western blot densitometry” value ([3]; across distant metastatic subclones, 250 uM, 3 days) was “quantitatively reversed; also recorded: selectively reversed”, the “acetylation (western blot)” value ([3]; distant metastatic subclones) was “decreased” and the “global H3K9Me2 (western blot)” value ([3]; distant metastatic subclones) was “generally increased”. For the same compound, the “reprogrammed chromatin state (global H3K9Me2/3 and acetylation, western blots)” value ([3]; paired lung metastasis A38Lg) was “reversed the reprogrammed chromatin state”.
